Experimental data as given in patent US9670550B2, “Method for examination of carcinogenic risk” (JAPANESE FOUNDATION FOR CANCER RESEARCH, priority 2013, dated 2017).

How the values were obtained:
liver cancer [1] = experiment: Liver cancer development in mice fed high-fat diets and given antibiotic cocktail, with oral deoxycholic acid; assay type: in vivo; conditions: 40 μg/g body weight orally three times a week, high-fat diet + antibiotic cocktail
Experimental: From the 13th week after the start of the raising, the antibiotic cocktail was administered to mice fed high-fat diets, which were then further raised. To these mice, 40 μg/g body weight of deoxycholic acid (DCA) or only a vehicle as a control was orally administered three times a week (FIG. 5A). […] The cancer was rarely developed in the control mouse group given only the vehicle, and even if the cancer was developed, its tumor size was small. On the other hand, the deoxycholic acid administration group had multiple cancer (25 or more tumors per individual), and also, its size was large.

liver cancer [2] = experiment: Liver cancer development in DMBA-treated mice fed high-fat diets, antibiotic given in drinking water; assay type: in vivo; conditions: high-fat diet, antibiotic in drinking water from 13 weeks old, dissected at the 30th week
Text: An acetone solution containing 0.5% of the carcinogenic substance DMBA (7,12-dimethylberiz[a]anthracene) was applied once to the backs of wild-type (C57BL/6) neonatal mice. The neonatal mice were raised together with their mother mouse by feeding with normal diets (ND) or high-fat diet (HFD) until 4 weeks old. The high-fat diets used were D12492 (Rodent Diet with 60% kcal % Fat; Research Diets, Inc., USA). The neonatal mice were weaned at 4 weeks old and subsequently raised with normal diets or high-fat diet. At 30 weeks old, their livers and lungs were excised, and the presence or absence of cancer development was analyzed. The average body weight of the mice at the time of dissection was 33 g for the mice fed normal diets and 51 g for the mice fed high-fat diets. The mice fed high-fat diets had approximately 1.5 times the body weights of the mice fed normal diets.
DMBA was applied to wild-type neonatal mice, followed by high-fat diet feeding. From 13 weeks old, an antibiotic cocktail (4Abx, antibiotic cocktail administration group) or vancomycin (VCM, vancomycin administration group) mixed with drinking water was administered to the mice. At the 30th week after the start of the raising, their livers were excised, and liver cancer development was analyzed. […]
The mice of each group were dissected at the 30th week, and liver cancer development was analyzed (FIGS. 3C and 3D).

intestinal bacteria = experiment: Level of gene encoding intestinal bacterial 16S rRNA after antibiotic administration; assay type: in vivo; conditions: 17 weeks after antibiotic administration, 30 weeks after birth; high-fat diet; in drinking water; 3 mice per group
Experimental: DMBA was applied to wild-type neonatal mice, followed by high-fat diet feeding. From 13 weeks old, an antibiotic cocktail (4Abx, antibiotic cocktail administration group) or vancomycin (VCM, vancomycin administration group) mixed with drinking water was administered to the mice. At the 30th week after the start of the raising, their livers were excised, and liver cancer development was analyzed. On the other hand, the raising of a control group was continued in the same way as the aforementioned raising up to the 13th week. The antibiotic cocktail contained ampicillin (1 g/l), neomycin (1 g/l), metronidazole (1 g/l), and vancomycin (500 mg/l). In the case of administering vancomycin alone, 500 mg/l vancomycin was administered.

gut microbiota = experiment: Gut microbiota analysis of feces by PCR of 16S rRNA gene; assay type: in vivo, mice
Experimental: In this Example, in order to search for an intestinal bacterium related to cancer development, how the gut microbiota was atlered was analyzed (FIG. 4). In the experimental schedule shown in FIG. 3A, 3 groups were used: a group fed normal diets, a group fed high-fat diets, and a group fed high-fat diets and also given vancomycin. At the 30th week after the start of the raising, their feces were recovered, and the gut microbiota was analyzed.
The gut microbiota was identified by PCR analysis (Non Patent Literatures 11 and 12). Specifically, DNA was extracted from the feces and purified. The gene encoding 16S rRNA in many types of bacteria was amplified by PCR using universal primers. The V1-V4 hypervariable regions were further amplified, followed by identification.

Structure (SMILES)	liver tumor size (liver cancer [1]; n=3)	tumor number per individual (liver) (liver cancer [1]; n=3) [tumors per individual]	liver tumor development (liver cancer [1]; vs vehicle)	liver cancer development (tumor number and size) as compared with the control (liver cancer [2])	amount of intestinal bacteria (level of gene encoding intestinal bacterial 16s rRNA) (intestinal bacteria)	Gram-negative microbiota, proportion on average (gut microbiota; HFD+VCM group, average (FIG. 4)) [%]	cluster XI of the genus Clostridium in gut microbiota (gut microbiota; feces at the 30th week, high-fat diets + vancomycin, n=2) [%]
C[C@H](CCC(=O)O)[C@H]1CC[C@H]2[C@@H]3CC[C@@H]4C[C@H](O)CC[C@]4(C)[C@H]3C[C@H](O)[C@]12C [deoxycholic acid]	large	≥ 25	developed a large number of liver tumors	–	–	–	–
CN[C@H](CC(C)C)C(=O)N[C@H]1C(=O)N[C@@H](CC(N)=O)C(=O)N[C@H]2C(=O)N[C@H]3C(=O)N[C@H](C(=O)N[C@H](C(=O)O)c4cc(O)cc(O)c4-c4cc3ccc4O)[C@H](O)c3ccc(c(Cl)c3)Oc3cc2cc(c3O[C@@H]2O[C@H](CO)[C@@H](O)[C@H](O)[C@H]2O[C@H]2C[C@](C)(N)[C@H](O)[C@H](C)O2)Oc2ccc(cc2Cl)[C@H]1O [vancomycin]	–	–	–	developed no liver cancer or developed liver cancer with a smaller tumor number and a smaller size	decreased into a very small level	99	0
